Earlier results, collected in patent publication US20100137844A1, “Delivery devices for modulating inflammation” (Searete LLC, a limited liability corporation of the State …, priority 2008, published 2010).

Assays:
[1] = 400 mg infused over one hour, single agent
Fyn = Fyn (Homo sapiens, UniProt P06241); conditions: at nanomolar concentrations
[2] = system: proteasomal activity in cultured breast cancer cells; conditions: via copper binding

Sequence of Fyn (P06241 whole entry): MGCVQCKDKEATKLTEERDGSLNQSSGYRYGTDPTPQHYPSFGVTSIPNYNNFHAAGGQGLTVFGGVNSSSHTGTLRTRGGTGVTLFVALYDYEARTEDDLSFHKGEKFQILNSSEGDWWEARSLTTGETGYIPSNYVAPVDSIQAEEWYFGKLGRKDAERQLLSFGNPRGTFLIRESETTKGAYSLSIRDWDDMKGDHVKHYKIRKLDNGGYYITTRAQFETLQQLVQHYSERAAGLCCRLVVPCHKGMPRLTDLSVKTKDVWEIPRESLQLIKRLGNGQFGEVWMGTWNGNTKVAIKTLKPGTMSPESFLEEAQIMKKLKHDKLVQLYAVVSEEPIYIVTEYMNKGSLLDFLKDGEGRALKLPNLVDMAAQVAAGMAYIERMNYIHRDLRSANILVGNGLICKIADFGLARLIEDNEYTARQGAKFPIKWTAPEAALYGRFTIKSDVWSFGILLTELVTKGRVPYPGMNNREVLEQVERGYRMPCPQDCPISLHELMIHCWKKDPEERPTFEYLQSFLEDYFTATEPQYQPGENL

## Cl.Cl.Nc1ccccc1Oc1ccc2c(N)nsc2c1 [Example M62812, 3-amino-6-(2-aminophenoxy)-1,2-benzisothiazole dihydrochloride]
mice
  prevention of lethal septic shock: prevents lethal septic shock in mice

## CCN(CC)CCCC(C)Nc1ccnc2cc(Cl)ccc12.O=P(O)(O)O.O=P(O)(O)O (centres unmarked) [chloroquine phosphate, 7-chloro-4-[[4-(diethylamino)-1-methylbutyl]amino]quinoline phosphate (1:2)]
[1]
  tolerability of intravenous infusion: without complication

## Cc1nc(Nc2ncc(C(=O)Nc3c(C)cccc3Cl)s2)cc(N2CCN(CCO)CC2)n1.O [dasatinib, N-(2-chloro-6-methylphenyl)-2-[[6-[4-(2-hydroxyethyl)-1-piperazinyl]-2-methyl-4-pyrimidinyl]amino]-5-thiazolecarboxamide, monohydrate]
Fyn
  inhibition of Fyn: inhibits

## CCN(CC)C(=S)SSC(=S)N(CC)CC [disulfiram, 1-(diethylthiocarbamoyldisulfanyl)-N,N-diethyl-methanethioamide]
Aldehyde dehydrogenase
  inhibition of aldehyde dehydrogenase: inhibits aldehyde dehydrogenase without toxicity
[2]
  proteasomal activity: inhibits proteasomal activity
